US4006241A, “Certain halothien-2-yl 5-nitrothiazol-2-yl ketones and fungicidal composition” (Schering Aktiengesellschaft, priority 1973, dated 1977)
In brackets after ≈: the same amount, converted by molar mass.

Legend:
Type in all cases: cell-based
Candida albicans = experiment: minimum inhibitory concentration (MIC) against fungi, Cand. alb.
Description: (§1) As examples of the effectiveness of the compounds of general Formula III against fungi, Table I indicates the minimum inhibitory concentrations (MIC) of several compounds. The comparison compounds are the known 2-Dimethylamino-6-(β-diethylaminoethoxy)-benzothiazole dihydrochloride and two 5-nitrothiazole derivatives substituted in the 2-position, which are known in the literature (J. Med. Chem. 12 [1969] 303).

[1] = system: Trichophyton mentagrophytes; experiment: minimum inhibitory concentration (MIC) against fungi, Trich. ment.
Description: as §1

Trichophyton rubrum = experiment: minimum inhibitory concentration (MIC) against fungi, Trich. rubr.
Description: as §1

SMILES: Cc1ccc(C(=O)c2ncc([N+](=O)[O-])s2)c(F)c1C
- MIC (Candida albicans): 1.6 µg/mL (≈ 5.71 µM)
- MIC [1]: 3.1 µg/mL (≈ 11.1 µM)
- MIC (Trichophyton rubrum): 3.1 µg/mL (≈ 11.1 µM)

SMILES: CCN(CC)CCOc1ccc2nc(N(C)C)sc2c1.Cl.Cl [2-Dimethylamino-6-(β-diethylaminoethoxy)-benzothiazole dihydrochloride]
- MIC (Candida albicans): 300 µg/mL
- MIC [1]: 50 µg/mL
- MIC (Trichophyton rubrum): 50 µg/mL

SMILES: CC(=O)NN=Cc1ncc([N+](=O)[O-])s1
- MIC (Candida albicans): 25 µg/mL (≈ 117 µM)
- MIC [1]: 12.5 µg/mL (≈ 58.4 µM)
- MIC (Trichophyton rubrum): 12.5 µg/mL (≈ 58.4 µM)

SMILES: Cc1cc(C(=O)c2ncc([N+](=O)[O-])s2)c(C)c(C)c1O
- MIC (Candida albicans): 1.6 µg/mL (≈ 5.47 µM)
- MIC [1]: 6.3 µg/mL (≈ 21.6 µM)
- MIC (Trichophyton rubrum): 3.1 µg/mL (≈ 10.6 µM)

SMILES: CCOC(=N)c1ncc([N+](=O)[O-])s1
- MIC (Candida albicans): 50 µg/mL (≈ 249 µM)
- MIC [1]: 50 µg/mL (≈ 249 µM)
- MIC (Trichophyton rubrum): 50 µg/mL (≈ 249 µM)

SMILES: O=C(c1ccc(Br)s1)c1ncc([N+](=O)[O-])s1
- MIC (Candida albicans): 0.4 µg/mL (≈ 1.25 µM)
- MIC [1]: 1.6 µg/mL (≈ 5.01 µM)
- MIC (Trichophyton rubrum): 1.6 µg/mL (≈ 5.01 µM)
